Reference: US11001590B2, “Pyrazolopyrimidine derivatives” (BAYER ANIMAL HEALTH GMBH, priority 2016, dated 2021)

molecular target: C. elegans Slo-1a (Caenorhabditis elegans, UniProt Q95V25); assay: In vitro assay 1: C. elegans Slo-1a, action at a recombinant C. elegans CHO cell line (membrane potential measurement); conditions: CHO cells expressing C. elegans Slo-1a; voltage sensitive dye, FLIPR Tetra; negative decadic logarithm of EC50
Sequence (Q95V25 whole entry): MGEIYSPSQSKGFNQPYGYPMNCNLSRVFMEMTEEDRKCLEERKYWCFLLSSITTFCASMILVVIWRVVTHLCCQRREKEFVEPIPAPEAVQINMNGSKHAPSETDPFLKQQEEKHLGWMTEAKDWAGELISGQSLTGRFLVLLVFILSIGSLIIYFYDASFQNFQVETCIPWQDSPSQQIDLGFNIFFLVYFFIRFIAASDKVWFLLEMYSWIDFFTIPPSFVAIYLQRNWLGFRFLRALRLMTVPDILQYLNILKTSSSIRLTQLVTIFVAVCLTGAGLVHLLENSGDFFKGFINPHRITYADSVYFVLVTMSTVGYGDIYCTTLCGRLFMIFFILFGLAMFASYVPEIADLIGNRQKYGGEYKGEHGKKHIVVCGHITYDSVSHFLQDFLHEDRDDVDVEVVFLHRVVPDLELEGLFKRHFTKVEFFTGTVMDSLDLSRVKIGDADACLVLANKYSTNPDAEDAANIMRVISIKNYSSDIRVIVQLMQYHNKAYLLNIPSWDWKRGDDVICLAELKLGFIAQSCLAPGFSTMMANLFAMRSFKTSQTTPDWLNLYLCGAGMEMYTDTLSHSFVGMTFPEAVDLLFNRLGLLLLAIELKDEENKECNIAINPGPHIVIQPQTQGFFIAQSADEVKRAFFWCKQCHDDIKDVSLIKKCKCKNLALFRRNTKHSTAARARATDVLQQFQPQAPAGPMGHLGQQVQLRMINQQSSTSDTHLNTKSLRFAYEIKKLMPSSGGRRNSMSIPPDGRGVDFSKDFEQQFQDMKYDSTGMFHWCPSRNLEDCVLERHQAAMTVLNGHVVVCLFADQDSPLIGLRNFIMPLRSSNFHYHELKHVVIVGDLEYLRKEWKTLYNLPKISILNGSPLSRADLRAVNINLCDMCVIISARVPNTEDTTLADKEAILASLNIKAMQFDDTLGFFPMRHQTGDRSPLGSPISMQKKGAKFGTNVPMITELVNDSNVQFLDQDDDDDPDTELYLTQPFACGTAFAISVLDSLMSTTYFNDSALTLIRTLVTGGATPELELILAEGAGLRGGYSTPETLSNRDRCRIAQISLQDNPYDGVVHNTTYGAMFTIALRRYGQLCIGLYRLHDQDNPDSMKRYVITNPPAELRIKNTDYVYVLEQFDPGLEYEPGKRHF

Structure (SMILES)	pE50
Cc1nn2c(C(C)C)c(C(=O)N[C@H]3CCc4ccccc43)cnc2c1-c1cc(Cl)cc(Cl)c1 [Example 8]	7.5
Cc1nn2c(C)c(C(=O)N[C@H]3CCCc4ccccc43)cnc2c1-c1ccccc1Cl [Example 9]	7.8
Cc1nn2c(C)c(C(=O)N[C@H]3CCc4ccccc43)cnc2c1-c1ccccc1Cl [Example 14]	7.7
Cc1nn2c(C)c(C(=O)N[C@H]3CCCc4ccccc43)cnc2c1-c1cccc(C(F)(F)F)c1 [Example 15]	6.7
Cc1nn2c(C)c(C(=O)N[C@H]3CCc4ccccc43)cnc2c1-c1cccc(C(F)(F)F)c1 [Example 16]	6.7
Cc1nn2c(C(C)C)c(C(=O)N[C@H]3CCCc4ccccc43)cnc2c1-c1ccccc1Cl [Example 19]	8
Cc1nn2c(C(C)C)c(C(=O)N[C@H]3CCc4ccccc43)cnc2c1-c1ccccc1Cl [Example 20]	7.9
CC(C)c1c(C(=O)N[C@H]2CCCc3ccccc32)cnc2c(-c3ccccc3Cl)cnn12 [Example 21]	6.5
CC(C)c1c(C(=O)N[C@H]2CCc3ccccc32)cnc2c(-c3ccc(Cl)cc3)cnn12 [Example 23]	7.2
CC(C)c1c(C(=O)N[C@H]2CCc3ccccc32)cnc2c(-c3ccccc3Cl)cnn12 [Example 24]	7.2
CC(C)c1c(C(=O)N[C@H]2CCCc3ccccc32)cnc2c(-c3ccc(Cl)cc3)cnn12 [Example 25]	6.6
Cc1nn2c(C)c(C(=O)N[C@H]3CCc4ccccc43)cnc2c1-c1ccc(Cl)cc1 [Example 27]	7.2
Cc1nn2c(C(C)C)c(C(=O)N[C@H]3CCCc4ccccc43)cnc2c1-c1ccc(Cl)cc1 [Example 29]	6.7
Cc1c(C(=O)N[C@H]2CCc3ccccc32)cnc2c(-c3ccc(Cl)cc3)cnn12 [Example 31]	6.7
Cc1nn2c(C(C)C)c(C(=O)N[C@H]3CCc4ccccc43)cnc2c1-c1ccc(Cl)cc1 [Example 32]	7.5
CC(C)c1c(C(=O)N[C@H]2CCc3ccccc32)cnc2c(-c3cccc(C(F)(F)F)c3)cnn12 [Example 37]	6.7
CC(C)c1c(C(=O)N[C@H]2CCc3ccccc32)cnc2c(-c3cccc(Cl)c3)cnn12 [Example 40]	6.5
Cc1c(C(=O)N[C@H]2CCCc3ccccc32)cnc2c(-c3ccc(Cl)cc3)cnn12 [Example 41]	4.8
Cc1c(C(=O)N[C@H]2CCCc3ccccc32)cnc2c(-c3ccccc3Cl)cnn12 [Example 42]	6.2
Cc1c(C(=O)N[C@H]2CCc3ccccc32)cnc2c(-c3ccccc3Cl)cnn12 [Example 43]	6.8
COc1c(F)ccc(-c2c(C(F)F)nn3c(C4CC4)c(C(=O)N[C@H]4CCOc5ccccc54)cnc23)c1F [Example 269]	9
O=C(N[C@H]1CCOc2ccccc21)c1cnc2c(-c3cccc(F)c3F)c(C(F)F)nn2c1C1CC1 [Example 270]	8.4
O=C(N[C@H]1CCOc2ccccc21)c1cnc2c(-c3c(Cl)cccc3Cl)c(C(F)F)nn2c1C1CC1 [Example 271]	8.5
O=C(N[C@H]1CCOc2ccccc21)c1cnc2c(-c3cc(Cl)c(F)c(Cl)c3)c(C(F)F)nn2c1C1CC1 [Example 272]	7.6

Structure (SMILES)	pE50
O=C(N[C@H]1CCOc2ccccc21)c1cnc2c(-c3cccc(Cl)c3)c(C(F)F)nn2c1C1CC1 [Example 273]	8.3
O=C(N[C@H]1CCOc2ccccc21)c1cnc2c(-c3ccc(F)c(F)c3)c(C(F)F)nn2c1C1CC1 [Example 274]	7.7
CC(C)c1c(C(=O)N[C@H]2CCOc3ccccc32)cnc2c(-c3cccc(Cl)c3)c(Cl)nn12 [Example 275]	7.9
CC(C)c1c(C(=O)N[C@H]2CCOc3ccccc32)cnc2c(-c3cccc(Cl)c3)c(C(F)F)nn12 [Example 276]	8
CC(C)c1c(C(=O)N[C@H]2CCOc3ccccc32)cnc2c(-c3c(F)ccc(Cl)c3F)c(C(F)F)nn12 [Example 277]	8.8
CC(C)c1c(C(=O)N[C@H]2CCOc3ccccc32)cnc2c(-c3ccc(F)c(F)c3)c(C(F)F)nn12 [Example 278]	7.5
CC(C)c1c(C(=O)N[C@H]2CCOc3ccccc32)cnc2c(-c3cccc(F)c3F)c(C(F)F)nn12 [Example 279]	8.2
O=C(N[C@H]1CCOc2ccccc21)c1cnc2c(-c3c(F)ccc(Cl)c3F)c(C(F)F)nn2c1C1CC1 [Example 280]	8.9
CC(C)c1c(C(=O)N[C@H]2CCOc3ccccc32)cnc2c(-c3cc(Cl)c(F)c(Cl)c3)c(C(F)F)nn12 [Example 282]	8.3
Cc1nn2c(C(C)C)c(C(=O)N[C@H]3CCOc4ccccc43)cnc2c1-c1ccc(F)c(N(C)C)c1F [Example 283]	9.3
COc1c(F)ccc(-c2c(C)nn3c(C4CC4)c(C(=O)N[C@H]4CCOc5ccccc54)cnc23)c1F [Example 284]	9.1
CC(C)c1c(C(=O)N[C@H]2CCc3ccccc32)cnc2c(-c3cccc(F)c3F)c(Cl)nn12 [Example 285]	8
CC(C)c1c(C(=O)N[C@H]2CCCc3ccccc32)cnc2c(-c3cccc(F)c3F)c(Cl)nn12 [Example 286]	7.9
CCc1c(C(=O)N[C@H]2CCOc3ccccc32)cnc2c(-c3cccc(F)c3F)c(C)nn12 [Example 477]	8.2
CCc1c(C(=O)N[C@H]2CCOc3ccccc32)cnc2c(-c3c(F)cccc3Cl)c(C)nn12 [Example 479]	8.2
Cc1nn2c(C3CC3)c(C(=O)N[C@H]3CCOc4ccccc43)cnc2c1-c1cccc(Cl)c1F [Example 480]	8.9
Cc1nn2c(C(C)C)c(C(=O)N[C@H]3CCOc4ccccc43)cnc2c1-c1cccc2[nH]ccc12 [Example 481]	7.7
COc1c(F)cc(F)c(-c2c(C)nn3c(C4CC4)c(C(=O)N[C@H]4CCOc5ccccc54)cnc23)c1F [Example 482]	9.2
Cc1nn2c(C(C)C)c(C(=O)N[C@H]3CCOc4ccccc43)cnc2c1-c1cccc2c1ccn2C [Example 483]	7.8
CCc1c(C(=O)N[C@H]2CCOc3ccccc32)cnc2c(-c3cccc(Cl)c3Cl)c(C)nn12 [Example 484]	8.6
CCc1c(C(=O)N[C@H]2CCOc3ccccc32)cnc2c(-c3ccc(Cl)cc3Cl)c(C)nn12 [Example 485]	8.2
CCc1c(C(=O)N[C@H]2CCOc3ccccc32)cnc2c(-c3cc(Cl)ccc3Cl)c(C)nn12 [Example 486]	8.4
CCc1c(C(=O)N[C@H]2CCOc3ccccc32)cnc2c(-c3ccc(F)c(F)c3)c(C)nn12 [Example 487]	7.7
CCc1c(C(=O)N[C@H]2CCOc3ccccc32)cnc2c(-c3cccc(Cl)c3)c(C)nn12 [Example 488]	8.2

Structure (SMILES)	pE50
CCc1c(C(=O)N[C@H]2CCOc3ccccc32)cnc2c(-c3ccc(F)c(F)c3F)c(C)nn12 [Example 490]	8.3
CCc1c(C(=O)N[C@H]2CCOc3ccccc32)cnc2c(-c3c(Cl)cccc3Cl)c(C)nn12 [Example 491]	8.3
O=C(N[C@H]1CCOc2ccccc21)c1cnc2c(-c3cc(Cl)ccc3Cl)c(C(F)F)nn2c1C1CC1 [Example 492]	8.9
O=C(N[C@H]1CCOc2ccccc21)c1cnc2c(-c3c(F)cccc3F)c(C(F)F)nn2c1C1CC1 [Example 493]	8.7
CC(C)c1c(C(=O)N[C@H]2CCOc3ccccc32)cnc2c(-c3cc(Cl)ccc3Cl)c(C(F)F)nn12 [Example 494]	8.5
CC(C)c1c(C(=O)N[C@H]2CCOc3ccccc32)cnc2c(-c3c(F)cccc3F)c(C(F)F)nn12 [Example 495]	8.3
CCc1c(C(=O)N[C@H]2CCOc3ccccc32)cnc2c(-c3ccc(F)c(OC)c3F)c(C)nn12 [Example 496]	8.9
CCc1c(C(=O)N[C@H]2CCOc3ccccc32)cnc2c(-c3cc(Cl)c(F)c(Cl)c3)c(C)nn12 [Example 497]	8
O=C(N[C@H]1CCOc2ccccc21)c1cnc2c(-c3ccc(F)c(F)c3F)c(C(F)F)nn2c1C1CC1 [Example 498]	8.3
O=C(N[C@H]1CCOc2ccccc21)c1cnc2c(-c3c(F)cccc3Cl)c(C(F)F)nn2c1C1CC1 [Example 499]	8.5
CC(C)c1c(C(=O)N[C@H]2CCOc3ccccc32)cnc2c(-c3ccc(F)c(F)c3)c(Cl)nn12 [Example 500]	7.7
Cc1nn2c(C3CC3)c(C(=O)N[C@H]3CCOc4ccccc43)cnc2c1-c1cccc(O)c1 [Example 501]	6.3
COc1c(F)ccc(-c2c(C(F)F)nn3c(C(C)C)c(C(=O)N[C@H]4CCOc5ccccc54)cnc23)c1F [Example 502]	8.6
CC(C)c1c(C(=O)N[C@H]2CCOc3ccccc32)cnc2c(-c3c(Cl)cccc3Cl)c(C(F)F)nn12 [Example 503]	7.9
Cc1nn2c(C3CC3)c(C(=O)N[C@H]3CCOc4ccccc43)cnc2c1-c1cc(C(F)(F)F)ccc1F [Example 504]	8.9
CC(C)c1c(C(=O)N[C@H]2CCOc3ccccc32)cnc2c(-c3cccc(Cl)c3Cl)c(C(F)F)nn12 [Example 505]	8.5
CC(C)c1c(C(=O)N[C@H]2CCOc3ccccc32)cnc2c(-c3c(F)cccc3Cl)c(C(F)F)nn12 [Example 506]	8.1
CC(C)c1c(C(=O)N[C@H]2CCOc3ccccc32)cnc2c(-c3ccc(Cl)cc3Cl)c(C(F)F)nn12 [Example 507]	8.1
CC(C)c1c(C(=O)N[C@H]2CCOc3ccccc32)cnc2c(-c3ccc(F)c(F)c3F)c(C(F)F)nn12 [Example 508]	8.2
Cc1nn2c(C3CC3)c(C(=O)N[C@H]3CCOc4ccccc43)cnc2c1-c1cc(C(F)(F)F)ccc1Cl [Example 509]	8.9
Cc1nn2c(C3CC3)c(C(=O)N[C@H]3CCOc4ccccc43)cnc2c1-c1cccc2c1CCO2 [Example 510]	8.6
O=C(N[C@H]1CCOc2ccccc21)c1cnc2c(-c3ccc(Cl)cc3Cl)c(C(F)F)nn2c1C1CC1 [Example 511]	8.4
O=C(N[C@H]1CCOc2ccccc21)c1cnc2c(-c3cccc(Cl)c3Cl)c(C(F)F)nn2c1C1CC1 [Example 512]	8.9
